The results in this text go back to patent US8071589B2, “Dihydrobenzoindazoles” (N. V. Organon, priority 2009, dated 2011).

Broadly, the EC50 is the concentration that produces a half-maximal response. High values mean a less potent agent, low ones a more potent agent.

The test concerns the target T1, human FSH receptor (Homo sapiens, UniProt P23945).
T1 sequence (P23945 18-695): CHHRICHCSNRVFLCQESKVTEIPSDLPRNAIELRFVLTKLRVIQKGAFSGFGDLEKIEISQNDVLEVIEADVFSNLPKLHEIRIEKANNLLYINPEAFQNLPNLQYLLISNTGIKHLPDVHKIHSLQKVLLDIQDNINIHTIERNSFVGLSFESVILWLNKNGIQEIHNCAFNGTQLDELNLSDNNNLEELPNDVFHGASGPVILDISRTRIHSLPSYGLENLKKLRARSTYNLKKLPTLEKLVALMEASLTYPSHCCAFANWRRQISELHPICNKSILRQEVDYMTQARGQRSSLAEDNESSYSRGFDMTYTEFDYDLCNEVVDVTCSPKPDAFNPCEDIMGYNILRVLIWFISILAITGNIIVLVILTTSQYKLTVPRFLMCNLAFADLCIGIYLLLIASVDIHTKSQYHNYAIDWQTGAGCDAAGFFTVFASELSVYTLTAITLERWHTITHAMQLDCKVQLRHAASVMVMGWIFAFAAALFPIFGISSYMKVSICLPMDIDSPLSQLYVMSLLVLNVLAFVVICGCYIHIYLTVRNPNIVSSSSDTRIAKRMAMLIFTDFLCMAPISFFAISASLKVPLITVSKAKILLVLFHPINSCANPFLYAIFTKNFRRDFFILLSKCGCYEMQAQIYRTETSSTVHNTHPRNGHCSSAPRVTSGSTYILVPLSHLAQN
Description: Agonistic activity at the human FSH receptor expressed in CHO cells (CRE-luciferase reporter). (In general: Reporter assays use an easily measured gene product as a stand-in for the process of interest.)
Description: The term EC50 means the concentration of the test compound that elicits half-maximal (50%) stimulation compared to the compound's maximally attainable effect. pEC50 is the negative log of EC50. The values can be determined e.g. in a cell line transfected with a FSH receptor gene and cotransfected with a cAMP responsive element/promoter directing the expression of a reporter gene. For the determination a software program such as MathIQ (version 2.0, ID Business Solutions Limited) can be used.
Agonistic activity of the compounds at the human FSH receptor was determined in Chinese Hamster Ovary (CHO) cells stably transfected with the human FSH receptor and cotransfected with a cAMP responsive element (CRE)/promotor directing the expression of a firefly luciferase reporter gene. […] Cells (7,500 cells/well of a 384 well plate) were incubated in Dulbecco' minimal essential F12 modified medium (Invitrogen), supplemented with 1 μg/ml bovine insulin, 5 μg/ml human apo-transferrin, 80 U/ml penicillin G and 80 μg/ml streptomycin with the test compounds (concentration between 0.0316 nM and 10.0 μM) in duplicate in a humidified atmosphere (95%) at 5-7% CO2 and 37° C. The final concentration of DMSO was 1%. After 4 hours of incubation, plates were allowed to adjust to room temperature for 1 hour. Then, Luclite (PerkinElmer) solution was added to the wells and cells were allowed to lyse for at least 1 hour at room temperature. Subsequently, luciferase activity was measured in a luminescence counter. The signal is expressed as counts per second (cps). The EC50 (concentration of the test compound that elicits half-maximal (50%) luciferase stimulation compared to the compound's maximally attainable effect) and efficacy values (maximal effect of the test compound as percentage of the maximal effect of recombinant human FSH) of the compounds were determined using the software program MathIQ (version 2.0, ID Business Solutions Limited).

Take `COc1cc2c(cc1OC(C)C)-c1c(c(C(=O)N3CCCN(C(=O)C4CCC4)CC3)nn1-c1ccc(F)cc1)CC2` [Example 3d, (4-(cyclobutanecarbonyl)-1,4-diazepan-1-yl)(1-(4-fluorophenyl)-8-isopropoxy-7-methoxy-4,5-dihydro-1H-benzo[g]indazol-3-yl)methanone]: the 50% effective concentration (EC50) was less than 100 nM.

For the molecule `COc1cc2c(cc1OC(C)C)-c1c(c(C(=O)N3CCCN(C(C)=O)CC3)nn1-c1ccc(F)cc1)CC2` [Example 3c, 1-(4-(1-(4-fluorophenyl)-8-isopropoxy-7-methoxy-4,5-dihydro-1H-benzo[g]indazole-3-carbonyl)-1,4-diazepan-1-yl)ethanone], the concentration for a half-maximal effect (EC50) is less than 100 nM.

On to `COc1cc2c(cc1OC(C)C)-c1c(c(C(=O)N(C)C(C)(C)C)nn1-c1cccs1)CC2` [Example 5b, N-tert-butyl-8-isopropoxy-7-methoxy-N-methyl-1-(thiophen-2-yl)-4,5-dihydro-1H-benzo[g]indazole-3-carboxamide], for which the concentration for a half-maximal effect (EC50) is less than 100 nM.

`COc1cc2c(cc1-c1cccnc1)-c1c(c(C(=O)N(C)C(C)(C)C)nn1-c1ccccc1Cl)CC2` [Example 11gb, N-tert-butyl-1-(2-chlorophenyl)-7-methoxy-N-methyl-8-(pyridin-3-yl)-4,5-dihydro-1H-benzo[g]indazole-3-carboxamide] yielded an EC50 of less than 100 nM.

Molecule `COc1cc2c(cc1OC(C)C)-c1c(c(C(=O)N3CCCN(C(=O)C4CCC4)CC3)nn1-c1ccsc1)CC2` [Example 2g, (4-(cyclobutanecarbonyl)-1,4-diazepan-1-yl)(8-isopropoxy-7-methoxy-1-(thiophen-3-yl)-4,5-dihydro-1H-benzo[g]indazol-3-yl)methanone] yielded an EC50 of less than 100 nM.

In turn, `COc1cc2c(cc1OC(C)C)-c1c(c(C(=O)N(C)C(C)(C)C)nn1-c1ccsc1)CC2` [Example 2h, N-tert-butyl-8-isopropoxy-7-methoxy-N-methyl-1-(thiophen-3-yl)-4,5-dihydro-1H-benzo[g]indazole-3-carboxamide] had a 50% effective concentration (EC50) of less than 100 nM.
